The results in this text go back to patent US20100286174A1, “INHIBITING GSNOR” (Duke University, priority 2009, published 2010).

The test concerns diabetic nephropathy. Kind of test: Treatment of patient with diabetic nephropathy (Working Example IV). The class given is in vivo, human. The note with it: person, creatinine of 3 at start; final concentration 6 micromolar; follow up 2 months later. The text has this: A person with diabetic nephropathy and creatinine of 3 is started on compound 6 at a final concentration of 6 micromolar and at follow up 2 months later, the creatinine is 2.

SMILES strings stand for the structures.

In turn, `CC(=O)CCc1ccc(-c2ccccc2)n1-c1ccc(C(C)=O)cc1` [compound 6] returned a creatinine of 2.
